Calls of active or inactive are those of the source. A value given as a limit tells only on which side of the number the result lay.

Experiment [1] relates to H4. The experiment in a line: Luminescence Cell-Based Dose Response HTS to Identify Activators of 5'UTR Stem-Loop Driven Prion Protein mRNA Translation in H4 Neuroglioblastoma Cells. [Related pubchem assays: 1829 (Project Summary), 1814 (Primary HTS)]. The note with it: Homo sapiens. The format is functional.
Experiment [2] can be described thus: blockers of bursicon-stimulated LGR2 cAMP reporter – cell-based, HEK293, CRE-luciferase reporter, cherry pick, set 2, dose response (AID 743343).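 Also: transfected cells were stimulated with diluted bursicon conditioned medium after compound addition.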 The format is functional.
Experiment [3] is described as follows: A549 cell cytotoxicity, dose response, cytotoxicity control, plate reader, cherry-pick, antagonist series (AID 743412). It is filed as functional, cell-based.
Experiment [4] in a line: viability loss in HEK293 cells – cell-based, plate reader, cherry-picked samples, cytotoxicity control, dose response (AID 743446). The format is functional.
Experiment [5] deals with T1, Heat shock factor protein 1 (Mus musculus, UniProt P38532).
T1 sequence (P38532 whole entry): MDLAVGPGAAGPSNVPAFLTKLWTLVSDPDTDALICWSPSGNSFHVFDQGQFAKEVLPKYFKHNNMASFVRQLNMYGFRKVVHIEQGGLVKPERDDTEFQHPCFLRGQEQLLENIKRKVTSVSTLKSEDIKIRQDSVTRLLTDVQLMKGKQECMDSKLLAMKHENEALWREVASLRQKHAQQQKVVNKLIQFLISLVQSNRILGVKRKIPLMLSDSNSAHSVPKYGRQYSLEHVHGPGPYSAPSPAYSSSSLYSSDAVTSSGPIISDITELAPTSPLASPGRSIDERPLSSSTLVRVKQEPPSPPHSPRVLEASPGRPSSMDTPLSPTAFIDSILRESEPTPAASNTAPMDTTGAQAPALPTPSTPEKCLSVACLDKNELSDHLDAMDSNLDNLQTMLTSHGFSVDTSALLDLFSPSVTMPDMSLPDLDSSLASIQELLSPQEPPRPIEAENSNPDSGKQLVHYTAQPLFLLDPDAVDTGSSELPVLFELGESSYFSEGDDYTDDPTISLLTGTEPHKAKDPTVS
In words: decrease of HSF1-responsive luciferase luminescence – cell-based, NIH3T3, dose retest, confirmation (AID 2382).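 Also: NIH3T3 fibroblasts with HSF1-driven luciferase reporter stressed by proteasome inhibitor MG132; luminescence from HSF1-driven luciferase expression after 8 hours of MG132 stress.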 The format is functional.

Experiment [6] can be described thus: blockade of melanocortin 4 receptor signaling – cell-based, plate reader, cherry pick, counter-screen for LGR2 antagonist project, dose response (AID 743444).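 Also: transfected HEK 293 cells stimulated with alpha-MSH peptide; potency of inhibitors of the alpha-MSH evoked signal.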 The format is functional. For orientation: A counterscreen serves to expose hits that act by an unwanted route or on another target.
Experiment [7] is described as follows: Luminescence Cell-Based Dose Confirmation HTS to Identify Activators of 5'UTR Stem-Loop Driven Alpha-Synuclein mRNA Translation in H4 Neuroglioblastoma Cells. [Related pubchem assays: 1829 (Project Summary), 1814 (Primary HTS)]. It is filed as functional.
Experiment [8] in a line: Luminescence Cell-Based Dose Response HTS to Identify Activators of Luciferase Translation or Activity in H4 […] Cells. [Related pubchem assays: 1829 (Project Summary), 1814 (Primary HTS)]. The format is functional.
In experiment [9] the target is T2, Heat shock protein HSP 90-alpha (Homo sapiens, UniProt P07900). The experiment in a line: Luminescence-based dose response biochemical high throughput screening assay for inhibitors of the Heat Shock Protein 90 (HSP90). [Related pubchem assays: 1831 (Summary AID.), 1846 (Confirmation screen.), 1789 (Primary screen.)].
Experiment [10] addresses T3, Dual specificity protein phosphatase 6 (Rattus norvegicus, UniProt Q64346).
T3 sequence (Q64346 whole entry): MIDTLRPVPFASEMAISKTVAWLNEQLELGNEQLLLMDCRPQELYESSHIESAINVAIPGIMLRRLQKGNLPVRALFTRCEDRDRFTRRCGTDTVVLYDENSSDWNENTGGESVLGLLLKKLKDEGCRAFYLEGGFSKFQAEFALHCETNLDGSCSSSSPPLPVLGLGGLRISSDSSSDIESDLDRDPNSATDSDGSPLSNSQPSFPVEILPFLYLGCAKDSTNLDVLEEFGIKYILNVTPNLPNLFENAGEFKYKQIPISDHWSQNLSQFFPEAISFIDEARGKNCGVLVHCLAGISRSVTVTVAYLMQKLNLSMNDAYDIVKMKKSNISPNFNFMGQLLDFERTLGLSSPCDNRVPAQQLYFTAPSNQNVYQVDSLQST
The experiment in a line: inhibition of rat DUSP6 enzyme activity – biochemical, in vitro, primary screen (AID 425).

In experiment [11] the target is T4, Bcl-2-related protein A1 (Mus musculus, UniProt Q07440).
T4 sequence (Q07440 whole entry): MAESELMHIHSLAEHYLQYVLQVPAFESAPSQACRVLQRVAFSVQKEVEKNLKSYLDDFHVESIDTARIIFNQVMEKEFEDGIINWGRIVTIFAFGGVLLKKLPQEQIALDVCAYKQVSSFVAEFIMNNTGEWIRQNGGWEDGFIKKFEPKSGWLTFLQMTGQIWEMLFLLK
The experiment in a line: displacement of Bid BH3 peptide from Bfl-1 – biochemical, fluorescence polarization, FITC-Bid, mouse, primary screen (AID 432). (In general: Polarisation of emitted light reports the rotation of a fluorescent probe.)

Experiment [12] has as its target T5, Small ubiquitin-related modifier 1 (Homo sapiens, UniProt P63165). In words: SUMO1 protein interaction blockers, potency – biochemical, fluorescence polarization, uHTS hits, dose response (AID 624382). The format is functional. As to conditions: read-out: IC50_Mean.
For experiment [13], the target named is T5, Small ubiquitin-related modifier 1. The experiment in a line: SUMO1 protein-protein binding blockers, potency – biochemical, FRET, dose response (AID 624383). It is filed as functional. The note with it: read-out: IC50_Mean.
Experiment [14] deals with T2, Heat shock protein HSP 90-alpha. The format is functional, organism-based.
Experiment [15] is described as follows: viability loss in THP-1 monocytes – THP-1 cells, cytotoxicity control for Vif-APOBEC3G degradation inhibitor project, dose response (AID 1117359). The format is functional. As to conditions: THP-1.
For experiment [16], the target named is Protein Tat (Human immunodeficiency virus type 1 group M subtype B (isolate HXB2)(HIV-1), UniProt P04608). The format is functional.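 Also: tat binding to TAR RNA read out by fluorescence polarization.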
Chain of Protein Tat (P04608 whole entry): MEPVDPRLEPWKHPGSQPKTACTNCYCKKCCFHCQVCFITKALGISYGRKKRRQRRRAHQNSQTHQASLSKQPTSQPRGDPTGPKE
Experiment [17] in a line: Luminescent dose response cell-based high throughput screening assay for inhibitors of the Janus kinase 2 mutant JAK2V617F. [Related pubchem assays: 1446 (Primary screen.), 1521 (Confirmation assay.), 1486 (Counter screen.)]. It is filed as functional.
A short description of experiment [18]: Trypanosoma cruzi growth suppression in host cells – NIH3T3 host cells, beta-gal luminescence, confirmation (AID 2044).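 Also: intracellular parasites grown in NIH/3T3 mouse fibroblasts as host cells; luminescent beta-galactosidase reporter signal from transgenic T. cruzi replicating inside host cells; inhibitors lower the luminescence signal.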 It is filed as functional, cell-based.
Experiment [19] is described as follows: NIH3T3 cell viability loss – ATP luminescence, mouse fibroblasts, counter-screen, dose response (AID 2010).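 Also: cells exposed to compound for about 90 hours before reading.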 The format is functional, cell-based.
Experiment [20] can be described thus: cells.
Experiment [21] deals with Large T antigen (Simian virus 40, UniProt P03070). It is filed as functional, Betapolyomavirus macacae.
Chain of Large T antigen (P03070 whole entry): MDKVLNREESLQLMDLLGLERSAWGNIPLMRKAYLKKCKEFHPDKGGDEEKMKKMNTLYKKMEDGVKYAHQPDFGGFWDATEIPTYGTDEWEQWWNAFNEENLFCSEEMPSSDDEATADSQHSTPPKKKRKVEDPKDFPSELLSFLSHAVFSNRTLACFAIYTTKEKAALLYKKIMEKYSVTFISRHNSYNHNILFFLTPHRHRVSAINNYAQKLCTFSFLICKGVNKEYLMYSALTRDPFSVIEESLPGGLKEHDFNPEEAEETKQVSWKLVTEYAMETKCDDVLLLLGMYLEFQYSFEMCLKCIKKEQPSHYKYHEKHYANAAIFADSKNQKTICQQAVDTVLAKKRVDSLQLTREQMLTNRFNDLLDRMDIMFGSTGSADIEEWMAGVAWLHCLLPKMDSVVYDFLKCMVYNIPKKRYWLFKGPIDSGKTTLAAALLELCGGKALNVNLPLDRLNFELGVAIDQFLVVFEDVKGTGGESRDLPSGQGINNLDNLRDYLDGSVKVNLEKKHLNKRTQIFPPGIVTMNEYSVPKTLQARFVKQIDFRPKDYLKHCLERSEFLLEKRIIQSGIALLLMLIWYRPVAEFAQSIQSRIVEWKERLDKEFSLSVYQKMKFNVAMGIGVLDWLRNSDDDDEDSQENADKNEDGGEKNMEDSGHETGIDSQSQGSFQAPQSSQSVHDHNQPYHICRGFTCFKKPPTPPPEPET

T5 sequence (P63165 whole entry): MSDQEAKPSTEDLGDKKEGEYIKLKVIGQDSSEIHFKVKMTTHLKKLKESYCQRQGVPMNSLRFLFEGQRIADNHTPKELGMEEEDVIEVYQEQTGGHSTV

In general, EC50 refers to the concentration giving half of the maximal effect. By AC50 is commonly meant the concentration giving half of the maximal activity seen. As for `CN(C(=O)COC(=O)c1nc(Cl)c(Cl)c(Cl)c1Cl)C1CCS(=O)(=O)C1` (centres undefined), the EC50 in experiment [1] was > 120 µM (not active); in [5], 13.1 µM (active); in experiment [7], > 120 µM (not active); in experiment [8] it was > 120 µM (not active). Moreover, the AC50 is 15.8 µM (active) in experiment [2], 7.97 µM (active) in experiment [3], 6.09 µM (active) in experiment [4] and 22.7 µM (active) in experiment [6].

Take `COC(=O)c1ccc(COc2ccc3c(C)c(C)c(=O)oc3c2)o1`: the IC50 in experiment [9] was 1.07 µM (active).

With `Nc1ccc2ncccc2c1N`, the IC50 in [10] was > 10 µM (not active); in experiment [11] it was 3.49 µM (active); in experiment [12], > 66.6 µM (inactive); in [13] it was 3.21 µM (active).

The CC50 is the concentration giving 50% cytotoxicity. As to `O=C(Nc1nc(-c2ccco2)c(-c2ccco2)s1)c1ccco1`, in [14], the AC50 is 5.17 µM (active). Further, in experiment [15], the CC50 was > 40 µM (active). Moreover, the IC50 in experiment [16] is > 100 µM (active).

In the case of `CCCn1c(CN(C)Cc2ccccc2)nc2c1c(=O)n(C)c(=O)n2C`, the IC50 in experiment [17] was 4.92 µM (active).

Regarding `COc1ccc(CCN2C(=O)CC(Nc3ccc(N4CCOCC4)cc3)C2=O)cc1OC` (centres undefined), the IC50 in experiment [16] is 18.8 µM (inconclusive).

Regarding `COC(=O)C1CCN(C(=O)c2ccc3nc(-c4cccc(OC)c4)oc3c2)CC1`, the IC50 in experiment [9] is 1.05 µM (active).

As to `Cc1ncc(CN2CCCC(CCC(=O)NCc3ccccc3F)C2)s1` (centres undefined), the EC50 in experiment [18] was < 0.1 µM (active); in experiment [19], > 60 µM (not active); in experiment [20] it was 0.099 µM (active).

With `Cc1oc2c(O)c(O)ccc2c(=O)c1-c1cnn(-c2ccccc2)c1`, the IC50 in [21] was 10.2 µM (active); in experiment [17] it was 2.04 µM (active).

For the origin of these results see ChEMBL document CHEMBL1201862, “PubChem BioAssay data set” (2004).
